Source: US10973778B2, “Using edible carriers to produce Curcuma extracts for oral and topical use” (California Northstate College of Pharmacy, LLC, priority 2012, dated 2021)

Test: UV absorption spectra of sunscreen agents and Curcuma longa L. extract
Format: physicochemical
Conditions: absorption spectrum in methanol; for wavelength above which absorption is low / very low: octocrylene 0.5 ug/ml, avobenzone 5 ug/ml (FIGS. 1B, 1E); for wavelength above which absorption is practically zero / practically no absorption: 0.5-20 ug/ml depending on agent (FIGS. 1A-1D)
Text: FIGS. 1A-1F compare the absorption spectra of representative current state-of-the-art sunscreen agents to the absorption spectra of Curcuma longa L., according to some embodiments.
The representative sunscreen agents show peaks in the absorption spectrum between the wavelengths of 290 nm to 400 nm which is the range of interest. Ideally, a desired agent would absorb energy across the entire range of 290 nm to 400 nm. In FIGS. 1A-1E, for example, a variety of peak positions are seen in the representative agents, where a high (desirable) absorption can be shown at the wavelength of the peak but there is usually a low or zero absorption at the trough, which is, of course, undesirable. Even combinations of sunscreen agents with peaks and troughs may leave areas within the wavelength range that are not covered, leaving wavelengths for which there is little or no UV protection, an undesirable situation.

Compound	wavelength above which absorption is low / very low	wavelength above which absorption is practically zero / practically no absorption
COc1ccc(C(=O)CC(=O)c2ccc(C(C)(C)C)cc2)cc1 [avobenzone]	about 390 nm	–
CC1CC(OC(=O)c2ccccc2O)CC(C)(C)C1 (centres unmarked) [homosalate]	–	about 340 nm
CCCCC(CC)COC(=O)C(C#N)=C(c1ccccc1)c1ccccc1 (centres unmarked) [octocrylene]	about 370 nm	about 380 nm
COc1ccc(C(=O)c2ccccc2)c(O)c1 [oxybenzone]	–	about 380 nm
